The results in this text go back to patent publication US20250161395A1, “SPINAL CORD REGENERATION THERAPY” (MOLEAC PTE LTD., priority 2022, published 2025).

This experiment has as its system NSC-34 cells. Briefly: NSC-34 cell differentiation into mature motor neurons. Type of experiment: cell-based.

Structures are written as SMILES.

On to `CC1=C(/C=C/C(C)=C/C=C/C(C)=C/C(=O)O)C(C)(C)CCC1` [RA, retinoic acid], for which the “time to NSC-34 cell differentiation” value (1 μM RA) was 14 days and the “time to NSC-34 cell differentiation” value (10 μM RA) is listed as 7 days.
